# According to US20150335558A1, “NERVE GROWTH INHIBITOR, CUTANEOUS-SENSORY-IRRITATION INHIBITOR, AND MARKER FOR CUTANEOUS-SENSORY-IRRITATION DETECTION” (HOYU CO., LTD., priority 2012, published 2015):
# Legend:
# [1] = system: mast cell deficient mice (WBB6F1-W/W^V) and normal control mice (WBB6F1-+/+); assay: Scratch bouts of mast cell deficient and normal control mice after 10% SDS application (Sample Experiment 1-2); assay type: in vivo, mouse; details: both mast cell deficient and normal control mice, 10% SDS aqueous solution 50 μL single application; no significant difference between both mice
# Procedure: The present Sample Experiment was conducted using mast cell deficient mice and normal control mice, and SDS was used as a stimulating substance to analyze the scratch bouts of mice. Further, the amount of histamine in the skin of each mouse was assessed after SDS had been applied. Male mast cell deficient mice at ages of 7 to 8 weeks (WBB6F1-W/W^V mouse), purchased from Japan SLC, and normal control mice that are wild mice at ages of 7 to 8 weeks (WBB6F1-+/+mouse) were used. The mice were given solid feed under free water supply and subjected to preliminary rearing for 7 days or longer under a constant temperature/constant humidity environment with a temperature of 22±2° C., and a humidity of 55±10% before they were used in the test. The mice for use were used in the test at least 3 days after shearing/depilating the rostral back of each mouse. A 10% aqueous solution composed of SDS dissolved in distilled water was applied a single time at 50 μL as a stimulating substance against the skin to the sheared/depilated rostral back of the mice mentioned above. If the surfactant solution had turned hard before application, it was heated and dissolved in a hot water bath of 37° C. before use. Distilled water was applied to the solvent control group (Vehicle). […]
# [2] = system: L-histidine decarboxylase (HDC); assay: HDC expression amount in mouse epidermis and dermis by Western blot (Sample Experiment 1-3); assay type: in vivo; details: ICR mice, Day 4, 10% SDS vs solvent control
# Text: Concerning the epidermis and dermis obtained by the method in the “Amount of Histamine in Mouse Skin” section above, the HDC in the epidermis and the HDC in the dermis were quantitatively determined by the Western blot analysis. The protein in the epidermis and the dermis was extracted using the Mammalian cell lysis kit (Sigma, Tokyo, Japan).
# The protein extract was subjected to centrifugation and the obtained supernatant was used as a protein solution. The amount of protein in the protein solution was quantitatively determined using a protein quantification kit, 2-D Quant Kit of GE Health Care Bioscience Co. Then, a sample buffer containing a reducing agent, 2-mercaptoethanol, was added to a certain amount of protein, and the mixture was reacted at 95° C. to cut the disulfide bond in the protein structure. This enables electrophoresis that reflects the molecular amount.
# The protein solution processed in the above manner was subjected to the Western blot analysis. In other words, electrophoresis was performed according to the following electrophoresis condition. As a result, protein was separated according to the molecular amount. Then, the separated protein was transcribed to the membrane according to the following transcription condition.
# Applied gel: Nupage 4%-12% Bis-tris gels (Invitrogen Corp., Carlsbad, Calif.) Electrophoresis buffer: 3-morpholinopropanesulfonic acid (MOPS) buffer Current/electrophoresis time: 200V, 100 mins.
# Applied membrane: Polyvinylidene Fluoride (PVDF) membrane Electrophoresis buffer: NuPAGE transcription buffer (Invitrogen Corp., Carlsbad, Calif.) pos Current/electrophoresis time: 30V, 60 mins.
# The membrane was cut at about 50 kDa after transcription. Then, blocking was performed with a 1% skim milk aqueous solution. […] After processing the secondary antibody and then washing each membrane with PBS-T (a solution comprising PBS and 0.1% Tween20), a band was detected with a fluorescent scanner. Then, the detected band was determined by quantification using an image analysis software Scion Image (Scion. Corp., Frederick, Md., USA). The Scion Image is a software that selects the band of the protein to be quantified, reads the band area and the density of the color tone, and detects the numerical value corresponding to the protein expression amount based on those information.
# HDC and β-actin (component of the cytoskeleton) are detected from the above processing. […]
compound,measurement,setting,value
"CCCCCCCCCCCCOS(=O)(=O)[O-].[Na+] [SDS, sodium dodecyl sulfate]",scratch bouts of mice (number in 60 mins.) after stimulating substance,[1],increased significantly with time
same,"53 kDa-HDC (active) expression amount, dermis",[2],did not change
same,"53 kDa-HDC (active) expression amount, epidermis",[2],increased
same,"74 kDa-HDC (inactive) expression amount, dermis",[2],increased significantly
same,"74 kDa-HDC (inactive) expression amount, epidermis",[2],increased
